“And” between values parts separate entries of the source, which are not always exact repeats. Identical values can stand only once. After the bases stand the sugars from the 5' end (letter, count) and the backbone: PS all phosphorothioate, else s phosphorothioate and o phosphodiester by linkage. Methylation of C is not given here. e = 2'-O-(2-methoxyethyl) (MOE); k = constrained ethyl (cEt); d = 2'-deoxy (DNA)
Target: IRF4
Conditions: ASO

| Sequence | target mRNA inhibition (SK-MEL-28, 4 µM) [%] | target mRNA inhibition (MM.1R, 1 µM) | further results |
| --- | --- | --- | --- |
| TCTAAACCAGCATATT (sugars k3 d10 k3, PS) | 33 |  |  |
| GTTTTTTGACTCAAGA (sugars k3 d10 k3, PS) | 67 |  |  |
| GTCTGAGTTGTACAGG (sugars k3 d10 k3, PS) |  | 52% and 57% |  |
| CCCACGCGGGAGGCTC (sugars k3 d10 k3, PS) |  | -23% |  |
| TCCGCTTGGAGAATTA (sugars k3 d10 k3, PS) | 13 |  |  |
| TCTTACTCCGCTGAGT (sugars k3 d10 k3, PS) | 35 |  |  |
| AGTCATCACTCTAGTC (sugars k3 d10 k3, PS) | 53 |  |  |
| CCACACCAGGAAACCG (sugars k3 d10 k3, PS) | 14 |  |  |
| TACTGCTTGAGGTTTT (sugars kkdddddddddkdkdk, PS) |  | 15% |  |
| AGCAAGTCGGTCCACA (sugars k3 d10 k3, PS) | 54 |  |  |
| AATGACTTAGTCAGAA (sugars k3 d10 k3, PS) | 27 |  |  |
| GCCTAGAGGTGCCTTC (sugars k3 d10 k3, PS) |  | 13% |  |
| ATGAGGAAGCCGTTCC (sugars k3 d10 k3, PS) | 58 |  |  |
| TATACTTAAGCAAGTG (sugars k3 d10 k3, PS) | 47 |  |  |
| CCGCAGCTCACCGCGC (sugars k3 d10 k3, PS) | 36 |  |  |
| GATAGTTAAGTACTTG (sugars k3 d10 k3, PS) | 49 |  |  |
| CAAAGCGGGTTCACAA (sugars k3 d10 k3, PS) | 16 |  |  |
| TACAAGGTCTGAGTTG (sugars k3 d10 k3, PS) |  | -6% |  |
| CTCTATAGTGTTCCAG (sugars k2 d9 e3 k2, PS) |  | 48% |  |
| AACACGGGAATTTCCA (sugars k3 d10 k3, PS) | 73 |  |  |
| AGTTCATTCCCTAGGT (sugars k3 d10 k3, PS) | 44 |  |  |
| GAAGCACTGGCATCGA (sugars k3 d10 k3, PS) | 44 |  |  |
| TTACTCTTAGGCACAT (sugars k3 d10 k3, PS) |  | 44% and 45% |  |
| CTCCACTACCATATTG (sugars k3 d10 k3, PS) | 1 |  |  |

| Sequence | target mRNA inhibition (SK-MEL-28, 4 µM) [%] | target mRNA inhibition (MM.1R, 1 µM) | further results |
| --- | --- | --- | --- |
| ACTTACACCCAGAAGT (sugars k3 d10 k3, PS) | -10 |  |  |
| AGTGATGTCAGGTTTT (sugars kkkdddddddddkeke, PS) |  | 59% | target mRNA inhibition (MM.1R, 0.074 µM): 15%; target mRNA inhibition (MM.1R, 0.222 µM): 36%; target mRNA inhibition (MM.1R, 0.666 µM): 55%; target mRNA inhibition (MM.1R, 2 µM): 79% |
| GTGTGCTTGCCAAGCC (sugars kdddddddddkekeke, PS) |  | 6% and 22% |  |
| TTCCGGGTGTGGCTGA (sugars k3 d10 k3, PS) |  | 25% |  |
| AAACTATAATTGGCAC (sugars k3 d10 k3, PS) | 30 |  |  |
| TCCCTCCAGCTTCGGT (sugars k3 d10 k3, PS) |  | -21% |  |
| GTAGTATGAGAAACGG (sugars kkdddddddddkdkdk, PS) |  | 32% |  |
| GCATTTTATCATCCGA (sugars kkkddddddddkekek, PS) |  | 45% |  |
| GCAGGGACCGCGCCAG (sugars k3 d10 k3, PS) |  | 10% |  |
| TTGGTTGGCTGGTCTT (sugars kdddddddddkekeke, PS) |  | -7% |  |
| ATTATATACTGGTTGG (sugars kkdddddddddekeke, PS) |  | 43% |  |
| GCCAATGCAACTGAAT (sugars k3 d10 k3, PS) | 36 |  |  |
| ACTAGCAGGGCACGCT (sugars k3 d10 k3, PS) | 38 |  |  |
| TGCCTTACCTGACAAG (sugars k3 d10 k3, PS) |  | 4% |  |
| CAAGTGTCTTCCACAA (sugars k3 d10 k3, PS) | 65 |  |  |
| CCGAGATATAAATAGC (sugars k3 d10 k3, PS) | 61 | 25% | target mRNA inhibition (MM.1R, 0.0625 µM): 3%; target mRNA inhibition (MM.1R, 0.074 µM): 7%; target mRNA inhibition (MM.1R, 0.222 µM): 9%; target mRNA inhibition (MM.1R, 0.25 µM): 12%; target mRNA inhibition (MM.1R, 0.666 µM): 22%; target mRNA inhibition (MM.1R, 2 µM): 38%; target mRNA inhibition (MM.1R, 4 µM): 52% |
| GGAAGTTTACACTGGA (sugars kkdddddddddkdkdk, PS) |  | 24% |  |
| TGCTTGAGGTTTTCCT (sugars k2 d9 e3 k2, PS) |  | 32% |  |
| CCCATGAACACCATGC (sugars k3 d10 k3, PS) | 32 |  |  |
| GCCAATCAGATGTCAC (sugars k3 d10 k3, PS) | 46 |  |  |
| ATGCATAGTGATGAGA (sugars k3 d10 k3, PS) | 45 |  |  |
| TCAGTTTGTGAAGCAT (sugars k3 d9 k3 e1, PS) |  | 58% | target mRNA inhibition (MM.1R, 0.074 µM): 28%; target mRNA inhibition (MM.1R, 0.222 µM): 22%; target mRNA inhibition (MM.1R, 0.666 µM): 43%; target mRNA inhibition (MM.1R, 2 µM): 64% |
| ACAGAAGGGCAACAGT (sugars k3 d10 k3, PS) | 43 |  |  |

Reference: the OligoGym collection
